In ChEMBL document CHEMBL3044798, “Nitrogen concentration and application timing affect imazamox efficacy in winter wheat” (Crop Prot, 2009):
Calls of active or inactive are those of the source.

Assays:
Format in all cases: functional, organism-based
[1] = system: Secale cereale; assay: Herbicidal activity against feral Secale cereale (rye) treated as spring post-emergence application at winter wheat-growing season in presence of urea ammonium nitrate
[2] = system: Secale cereale; assay: Herbicidal activity against feral Secale cereale (rye) treated as fall post-emergence application at winter wheat-growing season in presence of urea ammonium nitrate
[3] = system: Aegilops cylindrica; assay: Herbicidal activity against Aegilops cylindrica treated as spring post-emergence application at winter wheat-growing season relative to urea ammonium nitrate
[4] = system: Aegilops cylindrica; assay: Herbicidal activity against Aegilops cylindrica treated as fall post-emergence application at winter wheat-growing season relative to urea ammonium nitrate

Measured: Activity

COCc1cnc(C2=NC(C)(C(C)C)C(=O)N2)c(C(=O)O)c1 (centres undefined)
active: all assays above
